Experimental data taken from patent US20220202801A1, “USE OF COMPOUND IN PREPARATION OF DRUG FOR TREATING ATHEROSCLEROSIS” (GenEros Biopharma Ltd., priority 2019, published 2022).
“Also recorded” adds a separate entry of the source.

Experiments:
[1] = system: CD68; assay: Immunohistochemistry of aortic wall, CD68; format: in vivo, mice; conditions: for aorta (CD68) signal expression in blood vessels: IHC-P×400, single animal micrograph; for CD68 average optical density: aortic wall
Description: (§1) Methods: SPF grade C57BL/6 ApoE −/−model mice were provided by Guangdong Medical Experimental Animal Center, laboratory animal production license No. SOCK (Guangdong) 2013-0002. Laboratory animal quality certificate number: 44007200048196). Mice were half male and half female, aged 8 to 12 weeks, and 72 animals in total. After four weeks of housing in a SPF-level animal facility, animals with less body weights were disposed. A total of 64 animals were randomly divided into 8 groups, 8 in each group, fed with 10% high-fat food, and received with different treatments. Animals were observed and administered with the medicines by gavage once daily. The body weights were measured once a week and continued for 58 days. […] The test sample was dissolved in dimethyl sulfoxide solution and prepared with 30% PEG300.
(§2) After blood collection, the animals were sacrificed, and the aortic arch together with the heart and thoracic aorta were fixed with neutral formaldehyde and subject to pathological examination. The abdominal aorta was collected and quick-frozen in liquid nitrogen, and stored at −80° C.
(§3) c) Immunohistochemistry: The thoracic aorta was sliced and detected by immunohistochemistry for the expression of CD68, intercellular adhesion molecule-1 (ICAM-1), and vascular cell adhesion Molecule-1 (VCAM-1).

[2] = system: ApoE knockout mice; assay: Four blood lipids in serum of ApoE knockout mice (Example 1); format: in vivo; conditions: for HDL-C / LDL-C / TC / TG: serum
Description: as §1
At the end of the experiment, animals were anesthetized with pentobarbital sodium. Blood was collected from the orbital venous plexus, and centrifuged at 3000 r/min at a low temperature for 10 min to separate the serum. The levels of total cholesterol TC, triglyceride TG, high-density lipoprotein HDL-C, and low-density lipoprotein LDL-C were measured, and the remaining serum was stored in a refrigerator at −80° C.
Statistical analysis: Data were expressed as the mean plus or minus the standard deviation (x± s), and analyzed by SPSS21.0 statistical software. […] The level of test is α=0.05.

[3] = system: atherosclerotic lesions in ApoE knockout mice; assay: Aortic HE and oil red O staining, atherosclerotic lesion scores (Example 1); format: in vivo; conditions: for Mild n (number of animal cases with mild lesions) / Moderate n (number of animal cases with moderate lesions) / No lesion n (number of animal cases) / Severe n (number of animal cases with severe lesions): of 8 animals; for animals that had atherosclerosis (histological observation): of 8 aortas examined
Description: as §1, §2
a) HE staining: aortic arch was sliced and HE stained. The plaques were observed under optical microscope.
b) Oil red O staining: aortic arch was sliced and oil red O stained. The plaques were observed under optical microscope.

[4] = system: ApoE knockout mice; assay: Blood lipid metabolism TG, TCHO, HDL-c, LDL-c (Example 2); format: in vivo
[5] = system: VCAM-1; assay: Immunohistochemistry of aortic wall, VCAM-1; format: in vivo, mice; conditions: for aorta (VCAM-1) signal expression in blood vessels: IHC-P×400, single animal micrograph; for VCAM-1 average optical density: aortic wall
Description: as §1, §2, §3

[6] = half male and female, 1 mg/kg body weight
[7] = half male and female, 2 mg/kg body weight
[8] = half male and female, 5 mg/kg body weight
[9] = ♂, 5 mg/kg gavage QD, 58 days, 5 mg/kg
[10] = ♂, 5 mg/kg gavage QD, 58 days, listed as sample B, 5 mg/kg

SMILES: O=C(N/N=C/c1coc2ccccc2c1=O)c1cccnc1 [Sample B]
- aorta (CD68) signal expression in blood vessels ([1]; 1 mg/kg): low to medium
- aorta (CD68) signal expression in blood vessels ([1]; 2 mg/kg): low to medium
- aorta (CD68) signal expression in blood vessels ([1]; 5 mg/kg): low to medium
- CD68 average optical density ([1]; 1 mg/kg gavage QD): 1.85 ± 1.51 ×10^−2
- CD68 average optical density ([1]; 2 mg/kg gavage QD): 2.22 ± 0.99 ×10^−2
- CD68 average optical density ([1]; 5 mg/kg gavage QD): 2.83 ± 1.40 ×10^−2
- regulation on blood lipid levels (overall) ([2]; Example 1, overall): have the effect of improving blood lipids
- HDL-C [2, 6]: 1.75 ± 0.69 mmol/L
- LDL-C [2, 6]: 6.19 ± 2.64 mmol/L
- TC [2, 6]: 19.56 ± 5.66 mmol/L
- TG [2, 6]: 0.91 ± 0.69 mmol/L
- HDL-C [2, 7]: 1.68 ± 0.39 mmol/L
- LDL-C [2, 7]: 5.71 ± 1.80 mmol/L
- TC [2, 7]: 19.01 ± 4.64 mmol/L
- TG [2, 7]: 0.81 ± 0.30 mmol/L
- HDL-C [2, 8]: 1.71 ± 0.45 mmol/L
- LDL-C [2, 8]: 5.96 ± 2.17 mmol/L
- TC [2, 8]: 19.76 ± 5.49 mmol/L
- TG ([2]; half male and female, 5 mg/kg body weight, 5 mg/kg): 0.74 ± 0.35 mmol/L
- TG ([2]; half male and female, 5 mg/kg body weight, listed as sample B, 5 mg/kg): lower; also recorded: decreased
- LDL-C ([2]; ♀, 1 mg/kg gavage QD, 58 days): 4.32 ± 0.59 mmol/L
- TC ([2]; ♀, 1 mg/kg gavage QD, 58 days): 15.50 ± 2.01 mmol/L
- TG ([2]; ♀, 1 mg/kg gavage QD, 58 days): 0.57 ± 0.08 mmol/L
- HDL-C ([2]; ♀, 1 mg/kg gavage QD, 58 days, 1 mg/kg): 1.32 ± 0.18 mmol/L
- HDL-C ([2]; ♀, 1 mg/kg gavage QD, 58 days, listed as sample B, 1 mg/kg): lower
- LDL-C ([2]; ♀, 2 mg/kg gavage QD, 58 days): 4.40 ± 0.96 mmol/L
- TC ([2]; ♀, 2 mg/kg gavage QD, 58 days): 15.49 ± 2.98 mmol/L
- TG ([2]; ♀, 2 mg/kg gavage QD, 58 days): 0.58 ± 0.10 mmol/L
- HDL-C ([2]; ♀, 2 mg/kg gavage QD, 58 days, 2 mg/kg): 1.36 ± 0.16 mmol/L
- HDL-C ([2]; ♀, 2 mg/kg gavage QD, 58 days, listed as sample B, 2 mg/kg): lower
- LDL-C ([2]; ♀, 5 mg/kg gavage QD, 58 days): 4.61 ± 0.56 mmol/L
- TC ([2]; ♀, 5 mg/kg gavage QD, 58 days): 16.21 ± 1.98 mmol/L
- TG ([2]; ♀, 5 mg/kg gavage QD, 58 days): 0.65 ± 0.24 mmol/L
- HDL-C ([2]; ♀, 5 mg/kg gavage QD, 58 days, 5 mg/kg): 1.38 ± 0.08 mmol/L
- HDL-C ([2]; ♀, 5 mg/kg gavage QD, 58 days, listed as sample B, 5 mg/kg): lower
- HDL-C ([2]; ♂, 1 mg/kg gavage QD, 58 days): 2.18 ± 0.75 mmol/L
- LDL-C ([2]; ♂, 1 mg/kg gavage QD, 58 days): 8.07 ± 2.56 mmol/L
- TC ([2]; ♂, 1 mg/kg gavage QD, 58 days): 23.63 ± 5.16 mmol/L
- TG ([2]; ♂, 1 mg/kg gavage QD, 58 days): 1.26 ± 0.89 mmol/L
- LDL-C ([2]; ♂, 2 mg/kg gavage QD, 58 days): 7.03 ± 1.41 mmol/L
- TC ([2]; ♂, 2 mg/kg gavage QD, 58 days): 22.54 ± 2.88 mmol/L
- TG ([2]; ♂, 2 mg/kg gavage QD, 58 days): 1.05 ± 0.25 mmol/L
- HDL-C ([2]; ♂, 2 mg/kg gavage QD, 58 days, 2 mg/kg): 2.00 ± 0.23 mmol/L
- HDL-C ([2]; ♂, 2 mg/kg gavage QD, 58 days, listed as sample B, 2 mg/kg): lower
- LDL-C ([2]; ♂, 5 mg/kg gavage QD, 58 days): 7.31 ± 2.41 mmol/L
- TC ([2]; ♂, 5 mg/kg gavage QD, 58 days): 23.32 ± 5.72 mmol/L
- HDL-C [2, 9]: 2.04 ± 0.42 mmol/L
- TG [2, 9]: 0.83 ± 0.46 mmol/L
- HDL-C [2, 10]: lower
- TG [2, 10]: lower
- formation of arterial plaque (pathological results) ([3]; medium doses, preventive treatment): could delay the formation of arterial plaque in ApoE knockout mice to a certain extent
- Mild n (number of animal cases with mild lesions) ([3]; 1 mg/kg body weight): 2
- Moderate n (number of animal cases with moderate lesions) ([3]; 1 mg/kg body weight): 2
- No lesion n (number of animal cases) ([3]; 1 mg/kg body weight): 1
- Severe n (number of animal cases with severe lesions) ([3]; 1 mg/kg body weight): 3
- Mild n (number of animal cases with mild lesions) ([3]; 2 mg/kg body weight): 3
- Moderate n (number of animal cases with moderate lesions) ([3]; 2 mg/kg body weight): 1
- No lesion n (number of animal cases) ([3]; 2 mg/kg body weight): 4
- Severe n (number of animal cases with severe lesions) ([3]; 2 mg/kg body weight): 0
- Mild n (number of animal cases with mild lesions) ([3]; 5 mg/kg body weight): 3
- Moderate n (number of animal cases with moderate lesions) ([3]; 5 mg/kg body weight): 2
- No lesion n (number of animal cases) ([3]; 5 mg/kg body weight): 1
- Severe n (number of animal cases with severe lesions) ([3]; 5 mg/kg body weight): 2
- animals that had atherosclerosis (histological observation) ([3]; 1 mg/kg): 7 cases
- animals that had atherosclerosis (histological observation) ([3]; 2 mg/kg): 4 cases
- animals that had atherosclerosis (histological observation) ([3]; 5 mg/kg): 7 cases
- effect on atherosclerotic lesions compared with the statin group ([3]; overall, aortic pathology Example 1): equivalent to or better than that of the statin group
- Scores (atherosclerotic lesion score, average of the group) ([3]; score 0-3 per Table 8, 1 mg/kg body weight): 1.88 ± 1.13
- Scores (atherosclerotic lesion score, average of the group) ([3]; score 0-3 per Table 8, 2 mg/kg body weight): 0.62 ± 0.74
- Scores (atherosclerotic lesion score, average of the group) ([3]; score 0-3 per Table 8, 2 mg/kg body weight, listed as sample B): lower than the model control group
- Scores (atherosclerotic lesion score, average of the group) ([3]; score 0-3 per Table 8, 5 mg/kg body weight): 1.62 ± 1.06
- effect on high-density lipoprotein (HDL-c) level compared with the vehicle group [4]: no obvious effect
- effect on low-density lipoprotein (LDL-c) level compared with the vehicle group [4]: significantly reduce
- effect on total cholesterol (TCHO) level compared with the vehicle group [4]: significantly reduce
- effect on triglyceride (TG) level compared with the vehicle group [4]: significantly reduce
- aorta (VCAM-1) signal expression in blood vessels ([5]; 1 mg/kg): low to medium
- aorta (VCAM-1) signal expression in blood vessels ([5]; 2 mg/kg): low to medium
- aorta (VCAM-1) signal expression in blood vessels ([5]; 5 mg/kg): low to medium
- VCAM-1 average optical density ([5]; 1 mg/kg gavage QD): 1.24 ± 0.99 ×10^−2
- VCAM-1 average optical density ([5]; 2 mg/kg gavage QD, 2 mg/kg): 1.54 ± 1.11 ×10^−2
- VCAM-1 average optical density ([5]; 2 mg/kg gavage QD, listed as Nib2, 2 mg/kg): reduced expression
- VCAM-1 average optical density ([5]; 5 mg/kg gavage QD): 1.69 ± 0.85 ×10^−2
